Assays:
[1] = target: Melanocyte-stimulating hormone receptor (Mus musculus, UniProt Q01727); assay: Agonist activity at mouse MC1R expressed in HEK293 cells assessed as forskolin-stimulated response by beta-galactosidase reporter gene assay; assay type: functional, cell-based
Melanocortin receptor 3 = Melanocortin receptor 3 (Mus musculus, UniProt P33033); assay: Agonist activity at mouse MC3R expressed in HEK293 cells assessed as forskolin-stimulated response by beta-galactosidase reporter gene assay; assay type: functional, cell-based
Melanocortin receptor 4 = Melanocortin receptor 4 (Mus musculus, UniProt P56450); assay: Agonist activity at mouse MC4R expressed in HEK293 cells assessed as forskolin-stimulated response by beta-galactosidase reporter gene assay; assay type: functional, cell-based
Melanocortin receptor 5 = Melanocortin receptor 5 (Mus musculus, UniProt P41149); assay: Agonist activity at mouse MC5R expressed in HEK293 cells assessed as forskolin-stimulated response by beta-galactosidase reporter gene assay; assay type: functional, cell-based
[2] = target: Melanocortin receptor 4 (Mus musculus) (UniProt P56450); assay: Agonist activity at mouse MC4R expressed in HEK293 cells assessed as forskolin-stimulated response at 100 uM by beta-galactosidase reporter gene assay relative to forskolin; assay type: functional, cell-based
[3] = target: Melanocyte-stimulating hormone receptor (Mus musculus) (UniProt Q01727); assay: Agonist activity at mouse MC1R expressed in HEK293 cells assessed as forskolin-stimulated response at 100 uM by beta-galactosidase reporter gene assay relative to forskolin; assay type: functional, cell-based
[4] = target: Melanocortin receptor 3 (Mus musculus) (UniProt P33033); assay: Agonist activity at mouse MC3R expressed in HEK293 cells assessed as forskolin-stimulated response at 100 uM by beta-galactosidase reporter gene assay relative to forskolin; assay type: functional, cell-based
[5] = target: Melanocortin receptor 5 (Mus musculus) (UniProt P41149); assay: Agonist activity at mouse MC5R expressed in HEK293 cells assessed as forskolin-stimulated response at 10 uM by beta-galactosidase reporter gene assay relative to forskolin; assay type: functional, cell-based
[6] = target: Melanocortin receptor 5 (Mus musculus) (UniProt P41149); assay: Agonist activity at mouse MC5R expressed in HEK293 cells assessed as forskolin-stimulated response at 100 uM by beta-galactosidase reporter gene assay relative to forskolin; assay type: functional, cell-based
Mus musculus [7] = species: Mus musculus; assay: Selectivity for mouse MC1R over mouse MC3R
Mus musculus [8] = species: Mus musculus; assay: Selectivity for mouse MC1R over mouse MC4R

Sequence of Melanocortin receptor 4 (Mus musculus) (P56450 whole entry): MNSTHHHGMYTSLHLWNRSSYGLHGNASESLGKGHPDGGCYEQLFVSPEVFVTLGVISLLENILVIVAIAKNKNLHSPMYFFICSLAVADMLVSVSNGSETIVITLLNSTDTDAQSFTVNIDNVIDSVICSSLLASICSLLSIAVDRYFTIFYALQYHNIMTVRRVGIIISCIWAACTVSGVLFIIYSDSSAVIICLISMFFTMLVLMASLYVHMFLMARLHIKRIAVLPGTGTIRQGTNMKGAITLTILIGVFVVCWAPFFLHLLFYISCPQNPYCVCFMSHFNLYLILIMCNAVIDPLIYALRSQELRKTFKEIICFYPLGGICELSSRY
Sequence of Melanocortin receptor 4 (P56450 whole entry): as above
Sequence of Melanocortin receptor 3 (P33033 whole entry): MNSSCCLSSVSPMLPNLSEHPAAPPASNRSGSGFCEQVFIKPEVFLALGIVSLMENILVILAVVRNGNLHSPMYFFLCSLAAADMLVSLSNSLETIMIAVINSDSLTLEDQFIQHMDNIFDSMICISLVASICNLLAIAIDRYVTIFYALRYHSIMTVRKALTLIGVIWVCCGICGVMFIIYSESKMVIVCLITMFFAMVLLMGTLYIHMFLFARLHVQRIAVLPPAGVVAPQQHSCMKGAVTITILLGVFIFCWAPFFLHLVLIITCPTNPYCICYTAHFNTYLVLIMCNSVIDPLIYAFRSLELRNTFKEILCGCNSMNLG
Sequence of Melanocortin receptor 5 (P41149 whole entry): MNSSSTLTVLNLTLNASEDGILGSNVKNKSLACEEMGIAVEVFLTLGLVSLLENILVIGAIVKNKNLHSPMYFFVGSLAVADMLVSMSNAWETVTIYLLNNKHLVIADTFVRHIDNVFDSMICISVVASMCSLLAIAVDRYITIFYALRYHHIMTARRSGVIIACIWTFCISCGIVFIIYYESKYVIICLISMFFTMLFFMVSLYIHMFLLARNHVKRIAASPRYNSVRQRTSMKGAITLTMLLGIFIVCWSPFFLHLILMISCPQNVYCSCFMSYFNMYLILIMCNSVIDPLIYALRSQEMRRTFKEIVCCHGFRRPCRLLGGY
Sequence of Melanocyte-stimulating hormone receptor (Q01727 whole entry): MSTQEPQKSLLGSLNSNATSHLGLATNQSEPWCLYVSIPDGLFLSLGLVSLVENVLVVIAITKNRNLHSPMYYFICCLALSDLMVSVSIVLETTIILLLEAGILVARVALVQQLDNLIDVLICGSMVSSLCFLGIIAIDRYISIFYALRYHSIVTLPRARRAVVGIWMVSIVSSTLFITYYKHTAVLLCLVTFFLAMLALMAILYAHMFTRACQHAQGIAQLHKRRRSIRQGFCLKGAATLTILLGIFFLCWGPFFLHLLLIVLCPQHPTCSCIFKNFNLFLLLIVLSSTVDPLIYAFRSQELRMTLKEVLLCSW
Sequence of Melanocortin receptor 3 (Mus musculus) (P33033 whole entry): as the sequence (P33033 whole entry) above
Sequence of Melanocortin receptor 5 (Mus musculus) (P41149 whole entry): as the sequence (P41149 whole entry) above
Sequence of Melanocyte-stimulating hormone receptor (Mus musculus) (Q01727 whole entry, looked up): as the sequence (Q01727 whole entry) above

EC50 [1]	EC50 (Melanocortin receptor 3)	EC50 (Melanocortin receptor 4)	EC50 (Melanocortin receptor 5)	SMILES	further results
> 100 µM	> 100 µM	> 100 µM	> 100 µM	O=C1NC(Cc2c[nH]c3ccccc23)C(=O)N(Cc2ccc3ccccc3c2)c2cc(Cl)ccc21 (stereo not given)	
4.7 µM	23.3 µM		4.35 µM	O=C1NC(Cc2ccccc2)C(=O)N(Cc2ccc3ccccc3c2)c2cc(Cl)ccc21 (stereo not given)	Activity [2]: 70%
0.048 µM	0.32 µM	0.24 µM	0.087 µM	NCCCCC1NC(=O)c2ccc(Cl)cc2N(Cc2ccccc2)C1=O (stereo not given)	
	> 100 µM	> 100 µM	> 100 µM	O=C1NC(Cc2c[nH]c3ccccc23)C(=O)N(Cc2ccccc2)c2ccccc21 (stereo not given)	Activity [3]: 70%
32.9 µM	> 100 µM	> 100 µM	> 100 µM	O=C1NC(Cc2ccccc2)C(=O)N(Cc2ccccc2)c2ccccc21 (stereo not given)	
3.4 µM				NCCCCC1NC(=O)c2ccc(Cl)cc2N(Cc2ccc3ccccc3c2)C1=O (stereo not given)	Activity [4]: 30%; Activity [2]: 30%; Activity [5]: 65%
0.23 µM	4.16 µM	1.97 µM		O=C1NC(Cc2ccccc2)C(=O)N(Cc2ccccc2-c2ccccc2)c2ccccc21 (stereo not given)	Activity [6]: 60%; Ratio EC50 (Mus musculus [7]): 18; Ratio EC50 (Mus musculus [8]): 9
6.9 µM		35 µM	3.27 µM	CCCN1C(=O)C(Cc2ccccc2)NC(=O)c2ccccc21 (stereo not given)	Activity [4]: 80%
				N=C(N)NCCCC1NC(=O)c2ccc(Cl)cc2N(Cc2ccccc2)C1=O (stereo not given)	Activity [2]: 60%
16.4 µM	> 100 µM	> 100 µM	> 100 µM	NC(N)=NCCCC1NC(=O)c2ccccc2N(Cc2ccccc2)C1=O (stereo not given)	
21.6 µM	> 100 µM	> 100 µM	> 100 µM	Cc1cccc2c1N(Cc1ccccc1)C(=O)C(Cc1cn(Cc3ccccc3)c3ccccc13)NC2=O (stereo not given)	
1.8 µM	30.6 µM		17 µM	NC(N)=NCCCC1NC(=O)c2ccc(Cl)cc2N(Cc2ccccc2)C1=O (stereo not given)	
	> 100 µM	> 100 µM	> 100 µM	CCCCN1C(=O)C(Cc2ccccc2)NC(=O)c2ccccc21 (stereo not given)	Activity [3]: 70%
